Data from patent publication US20250057910A1, “Application of Polypeptide in Preparation of Product for Preventing or Treating Skin Injury Diseases” (Sichuan Gooddoctor Panxi Pharmaceutical Co., Ltd., priority 2021, published 2025).
Ends that are not written are not given here.

Columns and labels:
[1] = tested on: Wild-type AB-line zebrafish; assay: Tissue regeneration in zebrafish with caudal fin damage; format: in vivo; conditions: 250, 500 and 1000 μg/mL in water, 28° C., 3 days; vs model control; FIG. 5
Protocol: Experimental animals: Wild-type AB-line zebrafish, raised in water for culturing fish at 28° C. (water quality: 200 mg of instant dissolving sea salt being added to every 1 L of water made by reverse osmosis, with a conductivity of 450-550 μS/cm, a pH of 6.5-8.5 and a hardness of 50-100 mg/L CaCO3), at the age of 3 days post fertilization (3 dpf). The animals were provided by the fish breeding center of Hangzhou Hunter Biotechnology Co., Ltd. with the experimental animal use license number of SYXK (Zhejiang) 2012-0171, and the breeding management complied with the requirements of international AAALAC certification (certification number: 001458).
Experimental method: 3 dpf wild AB-line zebrafish were randomly selected, and the caudal fins of zebrafish was excised to establish a model of caudal fin damage in zebrafish. […] Treatment was performed at 28° C. for 3 days, 10 zebrafish were randomly selected in each experimental group and placed under an anatomical microscope to take photos, the data were analyzed and collected using NIS-Elements D 3.20 advanced image processing software, the regeneration areas of caudal fins of zebrafish were analyzed, and the statistical analysis results of this index were used to evaluate the efficacy of the samples of promoting tissue regeneration.

[2] = tested on: RSC96 cells (Rat Schwann cells); assay: Proliferation of RSC96 cells (CCK-8); format: cell-based; conditions: 48 hours, 0% serum medium, FIG. 4
Protocol: Experimental method: Rat Schwann cells (RSC96 cells) were adjusted to a concentration of 1.0*10^5 to 5.0*10^5/mL for passaging, and cultured at 37° C. and 5% CO2 for 24-36 hours for the biological activity detection. The cells were digested by trypsin, collected, prepared into a concentration of 5*10^4/mL with a serum-free medium, seeded in a 96-well cell culture plate with 100 μL per well, i.e., […], and cultured overnight at 37° C. and 5% CO2.
The polypeptide was dissolved in PBS solution and prepared into a stock solution with a concentration of 400 ug/ml. The polypeptide stock solution was prepared with 0% serum medium to test concentrations as the experimental groups; and for the control group, the same volume of 0% serum medium without drugs was added. For all the groups, 4 duplicate wells were incubated at 37° C. and 5% CO2 for 48 hours. The CCK-8 was used to detect cell proliferation: the old medium was removed, the serum-free medium containing 10% CCK-8 was added to each well, and absorbances were measured at 450 nm by microplate reader after incubation in an incubator for 2 hours.

[3] = tested on: Balb-3T3 cells (mouse embryo fibroblasts); assay: Proliferation of Balb-3T3 cells (CCK-8); format: cell-based; conditions: 48 hours, 2.5% FBS maintenance medium, FIG. 3
Protocol: (§1) Experimental method: Mouse embryo fibroblasts (Balb-3T3 cells) were cultured in 10% serum medium at 37° C. and 5% CO2, the culture fluid was changed every 1-2 days, and the cell concentration was controlled to be 4*10^6 cells/mL for passaging. The cells were collected and prepared into a concentration of 3* 10^4 cells/mL with 2.5% FBS maintenance medium, seeded into a 96-well cell culture plate with 100 uL per well, i.e., 3000 cells/well, and cultured at 37° C. and 5% CO2 to be adherent.
The polypeptide was dissolved in 2.5% FBS maintenance medium and prepared into a stock solution with a concentration of 1 mg/mL. The polypeptide stock solution was prepared with 2.5% FBS maintenance medium to test concentrations as the experimental groups; in the same manner, recombinant human basic fibroblast growth factor FGF (50 ng/mL), and recombinant human platelet derived growth factor PDGF-BB (30 ng/mL) were prepared and added as positive control; and for the blank control group, the same volume of 2.5% FBS maintenance medium was added. For all the groups, 5 duplicate wells were incubated at 37° C. and 5% CO2 for 48 hours. CCK-8 was used to detect cell proliferation: the serum-free medium containing 10% CCK-8 was added to each well, and absorbances were measured at 450 nm by microplate reader after incubation in an incubator for 2 hours.

[4] = tested on: HMEC-1 cells (human microvascular endothelial cells); assay: Proliferation of HMEC-1 cells (CCK-8); format: cell-based; conditions: 48 hours, 0% serum medium, FIG. 2
Protocol: as §1, with “Human microvascular endothelial cells (HMEC-1” for “Mouse embryo fibroblasts (Balb-3T3”, “4*10^4” for “3* 10^4”, “a serum-free” for “2.5% FBS maintenance”, “4000” for “3000”
The polypeptide was dissolved in PBS solution and prepared into a stock solution with a concentration of 1 mg/mL. The polypeptide stock solution was prepared with 0% serum medium to test concentrations as the experimental groups; in the same manner, recombinant human vascular endothelial growth factor VEGF (100 ng/mL) was prepared and added as positive control; and for the blank control group, the same volume of 0% serum medium without drugs was added. For all the groups, 5 duplicate wells were incubated at 37° C. and 5% CO2 for 48 hours. The CCK-8 was used to detect cell proliferation: serum-free medium containing 10% CCK-8 was added to each well, and absorbances were measured at 450 nm by microplate reader after incubation in an incubator for 2 hours.

PAAEPVPL [polypeptide] was tested, and the “Zebrafish caudal fin regeneration (regeneration area)” value [1] was “significantly promoting tissue regeneration”, the “Proliferation-promoting effect on the RSC96 cell line” value [2] was “significant effect of promoting proliferation” and the “Proliferation-promoting effect on the Balb-3T3 cell line” value [3] was “significant effect of promoting proliferation”. The “Proliferation-promoting effect on the HMEC-1 cell line” value [4] was “significant effect of promoting proliferation”.
